Measurements from ChEMBL document CHEMBL5696442, “Discovery of type II inhibitors of TGFβ-activated kinase 1 (TAK1) and mitogen-activated protein kinase kinase kinase kinase 2 (MAP4K2)” (J Med Chem, 2015).
Active and inactive are the calls of the source. The calls are words filed in the database; no cut-off is given here.

Legend:
[1] = target: Tyrosine-protein kinase receptor Tie-1 (Homo sapiens) (UniProt P35590); assay: Inhibition of TIE1 (unknown origin) at 10 uM by Ambit Kinomescan binding assay relative to control; values are per cent of control
Tyrosine-protein kinase receptor Tie-1 (Homo sapiens), sequence (P35590 whole entry): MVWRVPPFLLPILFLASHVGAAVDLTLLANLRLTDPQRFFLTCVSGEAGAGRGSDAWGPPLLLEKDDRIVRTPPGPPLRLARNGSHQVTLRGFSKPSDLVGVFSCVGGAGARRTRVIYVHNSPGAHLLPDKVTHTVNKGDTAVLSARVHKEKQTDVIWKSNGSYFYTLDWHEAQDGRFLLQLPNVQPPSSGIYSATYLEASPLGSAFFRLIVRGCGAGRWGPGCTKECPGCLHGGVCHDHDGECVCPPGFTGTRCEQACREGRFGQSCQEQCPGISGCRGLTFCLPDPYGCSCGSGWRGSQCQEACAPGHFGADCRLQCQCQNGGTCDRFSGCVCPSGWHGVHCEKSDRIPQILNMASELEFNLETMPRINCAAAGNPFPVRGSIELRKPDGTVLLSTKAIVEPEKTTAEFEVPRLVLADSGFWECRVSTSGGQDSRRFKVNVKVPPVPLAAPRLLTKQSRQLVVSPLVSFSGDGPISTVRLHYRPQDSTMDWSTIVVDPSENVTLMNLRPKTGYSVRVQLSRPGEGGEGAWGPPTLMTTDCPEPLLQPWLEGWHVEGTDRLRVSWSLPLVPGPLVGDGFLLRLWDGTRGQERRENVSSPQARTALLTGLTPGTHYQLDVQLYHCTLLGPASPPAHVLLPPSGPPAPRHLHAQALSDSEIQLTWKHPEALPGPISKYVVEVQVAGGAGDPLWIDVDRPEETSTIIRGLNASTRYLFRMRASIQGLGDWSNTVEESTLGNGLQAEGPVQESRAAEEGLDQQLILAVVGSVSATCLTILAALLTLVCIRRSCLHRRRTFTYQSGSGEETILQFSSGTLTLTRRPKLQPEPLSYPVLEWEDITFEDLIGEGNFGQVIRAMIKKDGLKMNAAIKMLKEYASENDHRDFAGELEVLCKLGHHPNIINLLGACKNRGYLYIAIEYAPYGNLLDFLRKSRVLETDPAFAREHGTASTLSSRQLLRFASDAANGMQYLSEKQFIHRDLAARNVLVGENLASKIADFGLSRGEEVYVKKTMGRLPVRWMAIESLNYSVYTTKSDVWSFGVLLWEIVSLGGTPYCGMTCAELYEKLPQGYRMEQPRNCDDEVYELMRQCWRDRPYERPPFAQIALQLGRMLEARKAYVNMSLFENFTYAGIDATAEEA

[2] = target: Cyclin-dependent kinase 5 (Homo sapiens) (UniProt Q00535); assay: Inhibition of CDK5 Lys1 labeling site in human A-375 cells at 0.05 uM by KiNativ Profiling analysis relative to control; assay type: cell-based
[3] = target: Serine/threonine-protein kinase Nek6 (Homo sapiens) (UniProt Q9HC98); assay: Inhibition of NEK6 ACT labeling site in human Huh-7 cells at 1 uM by KiNativ Profiling analysis relative to control; assay type: cell-based
Serine/threonine-protein kinase Nek6 (Homo sapiens), sequence (Q9HC98 whole entry): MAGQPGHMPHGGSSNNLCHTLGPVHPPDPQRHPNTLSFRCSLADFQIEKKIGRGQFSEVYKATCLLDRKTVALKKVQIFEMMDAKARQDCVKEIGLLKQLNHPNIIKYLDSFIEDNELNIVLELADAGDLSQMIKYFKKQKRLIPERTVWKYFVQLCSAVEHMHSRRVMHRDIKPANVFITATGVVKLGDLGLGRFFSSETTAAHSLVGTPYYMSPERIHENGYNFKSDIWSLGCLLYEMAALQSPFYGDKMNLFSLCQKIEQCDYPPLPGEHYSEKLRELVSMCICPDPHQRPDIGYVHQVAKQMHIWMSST

[4] = system: Receptor-type tyrosine-protein kinase FLT3 (Homo sapiens), P36888 [K663Q]; assay: Inhibition of FLT3 K663Q mutant (unknown origin) at 10 uM by Ambit Kinomescan binding assay relative to control
[5] = target: Serine/threonine-protein kinase DCLK2 (Homo sapiens) (UniProt Q8N568); assay: Inhibition of DCAMKL2 (unknown origin) at 10 uM by Ambit Kinomescan binding assay
Serine/threonine-protein kinase DCLK2 (Homo sapiens), sequence (Q8N568 whole entry): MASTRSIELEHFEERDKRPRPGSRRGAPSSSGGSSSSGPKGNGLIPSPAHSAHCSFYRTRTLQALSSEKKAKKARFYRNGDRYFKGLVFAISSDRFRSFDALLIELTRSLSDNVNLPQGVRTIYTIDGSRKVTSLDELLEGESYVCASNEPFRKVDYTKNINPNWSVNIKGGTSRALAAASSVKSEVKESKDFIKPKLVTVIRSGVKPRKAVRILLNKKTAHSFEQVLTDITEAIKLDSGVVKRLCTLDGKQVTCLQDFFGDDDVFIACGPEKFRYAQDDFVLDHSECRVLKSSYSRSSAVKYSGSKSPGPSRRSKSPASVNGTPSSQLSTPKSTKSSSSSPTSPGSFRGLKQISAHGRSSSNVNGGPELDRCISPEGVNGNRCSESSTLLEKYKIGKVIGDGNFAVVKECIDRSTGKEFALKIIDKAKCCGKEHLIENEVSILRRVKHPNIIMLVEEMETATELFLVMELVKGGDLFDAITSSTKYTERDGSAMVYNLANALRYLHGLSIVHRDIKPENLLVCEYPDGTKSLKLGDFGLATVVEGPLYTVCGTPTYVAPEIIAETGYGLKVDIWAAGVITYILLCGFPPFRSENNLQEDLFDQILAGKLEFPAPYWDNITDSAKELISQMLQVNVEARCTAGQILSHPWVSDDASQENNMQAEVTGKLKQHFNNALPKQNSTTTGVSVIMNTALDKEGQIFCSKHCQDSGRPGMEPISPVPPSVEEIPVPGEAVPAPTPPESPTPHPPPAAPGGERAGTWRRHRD

[6] = target: T1, Phosphatidylinositol 5-phosphate 4-kinase type-2 beta (Homo sapiens) (UniProt P78356); assay: Inhibition of PIP5K2B (unknown origin) at 10 uM by Ambit Kinomescan binding assay
T1 sequence (whole entry): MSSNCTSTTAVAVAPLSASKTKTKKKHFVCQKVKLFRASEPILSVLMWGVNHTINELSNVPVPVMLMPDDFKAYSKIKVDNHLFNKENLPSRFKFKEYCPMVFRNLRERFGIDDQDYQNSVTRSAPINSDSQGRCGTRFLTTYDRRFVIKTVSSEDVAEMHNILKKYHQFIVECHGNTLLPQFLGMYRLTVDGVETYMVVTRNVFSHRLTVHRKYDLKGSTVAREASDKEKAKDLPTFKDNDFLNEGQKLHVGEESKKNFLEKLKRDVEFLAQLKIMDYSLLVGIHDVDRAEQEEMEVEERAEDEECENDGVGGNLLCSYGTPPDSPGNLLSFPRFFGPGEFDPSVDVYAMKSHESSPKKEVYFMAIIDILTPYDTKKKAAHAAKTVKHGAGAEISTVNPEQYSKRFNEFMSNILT

[7] = target: Microtubule-associated serine/threonine-protein kinase 2 (Homo sapiens) (UniProt Q6P0Q8); assay: Inhibition of MAST2 Lys2 labeling site harbouring DLKPDNLLVTSMGHIK in human Huh-7 cells at 1 uM by KiNativ Profiling analysis relative to control; assay type: cell-based
[8] = target: Casein kinase I isoform epsilon (Homo sapiens) (UniProt P49674); assay: Inhibition of CK1e Lys2 labeling site in human Huh-7 cells at 1 uM by KiNativ Profiling analysis relative to control; assay type: cell-based
Casein kinase I isoform epsilon (Homo sapiens), sequence (P49674 whole entry, looked up, canonical isoform): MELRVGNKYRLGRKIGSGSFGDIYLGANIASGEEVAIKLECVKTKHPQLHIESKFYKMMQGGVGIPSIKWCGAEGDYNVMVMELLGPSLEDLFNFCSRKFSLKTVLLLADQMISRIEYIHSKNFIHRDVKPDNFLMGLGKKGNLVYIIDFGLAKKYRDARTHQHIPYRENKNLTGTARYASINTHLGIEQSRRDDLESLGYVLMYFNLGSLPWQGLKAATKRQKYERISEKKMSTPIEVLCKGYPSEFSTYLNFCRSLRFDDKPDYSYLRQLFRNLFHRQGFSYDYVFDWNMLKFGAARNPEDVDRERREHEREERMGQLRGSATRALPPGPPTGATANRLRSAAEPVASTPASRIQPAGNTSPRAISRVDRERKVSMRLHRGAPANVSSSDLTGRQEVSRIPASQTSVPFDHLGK

[9] = target: T2, Serine/threonine-protein kinase TBK1 (Homo sapiens) (UniProt Q9UHD2); assay: Inhibition of TBK1 Lys1 labeling site in human Huh-7 cell lysate at 1 uM by KiNativ Profiling analysis relative to control; assay type: subcellular
T2 sequence (whole entry): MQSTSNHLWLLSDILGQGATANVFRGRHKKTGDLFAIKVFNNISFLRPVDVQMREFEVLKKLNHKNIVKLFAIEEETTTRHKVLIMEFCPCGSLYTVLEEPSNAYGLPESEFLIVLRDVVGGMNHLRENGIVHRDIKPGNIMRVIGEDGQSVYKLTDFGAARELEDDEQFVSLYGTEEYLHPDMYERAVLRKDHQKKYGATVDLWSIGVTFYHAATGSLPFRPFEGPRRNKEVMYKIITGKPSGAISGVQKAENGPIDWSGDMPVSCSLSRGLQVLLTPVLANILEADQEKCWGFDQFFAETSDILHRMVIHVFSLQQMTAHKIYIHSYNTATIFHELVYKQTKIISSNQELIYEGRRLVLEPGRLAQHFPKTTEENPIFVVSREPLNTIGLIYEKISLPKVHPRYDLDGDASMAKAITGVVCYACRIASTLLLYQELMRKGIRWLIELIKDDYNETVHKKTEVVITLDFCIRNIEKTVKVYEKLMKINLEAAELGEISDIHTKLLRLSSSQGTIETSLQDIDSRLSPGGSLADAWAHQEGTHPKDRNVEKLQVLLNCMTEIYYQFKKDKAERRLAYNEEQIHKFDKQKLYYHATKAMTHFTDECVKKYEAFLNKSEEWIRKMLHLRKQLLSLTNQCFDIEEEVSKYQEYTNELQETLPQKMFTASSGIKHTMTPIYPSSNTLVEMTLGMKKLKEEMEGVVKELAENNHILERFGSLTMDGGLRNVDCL

[10] = target: Serine/threonine-protein kinase VRK2 (Homo sapiens) (UniProt Q86Y07); assay: Inhibition of VRK2 Lys2 labeling site in human Huh-7 cell lysate at 1 uM by KiNativ Profiling analysis relative to control; assay type: subcellular
Serine/threonine-protein kinase VRK2 (Homo sapiens), sequence (Q86Y07 whole entry): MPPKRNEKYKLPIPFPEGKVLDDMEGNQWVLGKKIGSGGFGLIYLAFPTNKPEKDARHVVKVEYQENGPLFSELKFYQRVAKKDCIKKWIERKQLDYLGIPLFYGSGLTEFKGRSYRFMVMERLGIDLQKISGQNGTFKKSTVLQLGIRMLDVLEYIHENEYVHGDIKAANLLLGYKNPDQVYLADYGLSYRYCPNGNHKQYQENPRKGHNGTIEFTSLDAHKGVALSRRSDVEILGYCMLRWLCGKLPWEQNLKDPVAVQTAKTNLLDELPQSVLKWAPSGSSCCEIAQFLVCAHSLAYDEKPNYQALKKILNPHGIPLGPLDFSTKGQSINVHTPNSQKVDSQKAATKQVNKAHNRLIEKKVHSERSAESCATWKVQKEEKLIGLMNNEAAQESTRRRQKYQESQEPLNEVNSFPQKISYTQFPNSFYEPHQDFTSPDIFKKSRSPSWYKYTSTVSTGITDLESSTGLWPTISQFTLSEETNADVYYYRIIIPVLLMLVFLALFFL

[11] = target: Mitogen-activated protein kinase 8 (Homo sapiens, UniProt P45983); assay: Inhibition of JNK1 Lys2 labeling site in human Huh-7 cells at 1 uM by KiNativ Profiling analysis relative to control; assay type: cell-based
Mitogen-activated protein kinase 8, sequence (P45983 whole entry): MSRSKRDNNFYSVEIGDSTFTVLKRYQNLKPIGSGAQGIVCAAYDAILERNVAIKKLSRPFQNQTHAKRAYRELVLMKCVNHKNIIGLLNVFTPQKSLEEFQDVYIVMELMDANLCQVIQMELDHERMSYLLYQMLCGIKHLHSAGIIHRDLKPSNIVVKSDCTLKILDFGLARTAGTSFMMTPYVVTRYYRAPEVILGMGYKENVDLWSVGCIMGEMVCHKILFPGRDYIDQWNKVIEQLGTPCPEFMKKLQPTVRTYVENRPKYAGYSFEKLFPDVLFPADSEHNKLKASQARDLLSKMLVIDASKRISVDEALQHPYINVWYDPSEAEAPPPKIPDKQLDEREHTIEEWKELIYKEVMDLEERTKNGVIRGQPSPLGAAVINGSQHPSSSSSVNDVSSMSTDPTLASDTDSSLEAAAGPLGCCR

[12] = target: Cyclin-dependent kinase 17 (Homo sapiens) (UniProt Q00537); assay: Inhibition of PCTAIRE2 PCTAIRE3 Lys1 labeling site in human Huh-7 cell lysate at 1 uM by KiNativ Profiling analysis relative to control; assay type: subcellular
[13] = system: Fibroblast growth factor receptor 3 (Homo sapiens), P22607 [G697C]; assay: Inhibition of FGFR3 G697C mutant (unknown origin) at 1 uM by Ambit Kinomescan binding assay relative to control; values are per cent of control
[14] = target: Proto-oncogene tyrosine-protein kinase Src (Homo sapiens, UniProt P12931); assay: Inhibition of SRC ACT labeling site in human A-375 cells at 0.05 uM by KiNativ Profiling analysis relative to control; assay type: cell-based
Proto-oncogene tyrosine-protein kinase Src, sequence (P12931 2-536 limits assumed): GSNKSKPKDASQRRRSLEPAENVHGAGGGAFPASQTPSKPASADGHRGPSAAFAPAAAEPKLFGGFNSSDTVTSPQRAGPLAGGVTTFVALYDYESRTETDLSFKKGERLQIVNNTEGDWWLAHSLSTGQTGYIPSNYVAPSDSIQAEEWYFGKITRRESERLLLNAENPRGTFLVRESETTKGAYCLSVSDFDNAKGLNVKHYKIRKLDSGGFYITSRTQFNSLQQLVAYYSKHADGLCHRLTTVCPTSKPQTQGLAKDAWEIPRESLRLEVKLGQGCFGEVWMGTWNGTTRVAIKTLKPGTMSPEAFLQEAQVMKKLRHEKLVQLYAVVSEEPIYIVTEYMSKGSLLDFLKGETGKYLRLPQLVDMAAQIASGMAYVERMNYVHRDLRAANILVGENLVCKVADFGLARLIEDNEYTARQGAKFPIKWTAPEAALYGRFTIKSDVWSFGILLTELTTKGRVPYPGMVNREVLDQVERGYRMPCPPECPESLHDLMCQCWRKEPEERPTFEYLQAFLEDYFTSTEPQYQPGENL

[15] = target: Cyclin-dependent kinase 6 (Homo sapiens) (UniProt Q00534); assay: Inhibition of CDK6 Lys2 labeling site in human A-375 cells at 0.05 uM by KiNativ Profiling analysis relative to control; assay type: cell-based
Cyclin-dependent kinase 6 (Homo sapiens), sequence (Q00534 whole entry): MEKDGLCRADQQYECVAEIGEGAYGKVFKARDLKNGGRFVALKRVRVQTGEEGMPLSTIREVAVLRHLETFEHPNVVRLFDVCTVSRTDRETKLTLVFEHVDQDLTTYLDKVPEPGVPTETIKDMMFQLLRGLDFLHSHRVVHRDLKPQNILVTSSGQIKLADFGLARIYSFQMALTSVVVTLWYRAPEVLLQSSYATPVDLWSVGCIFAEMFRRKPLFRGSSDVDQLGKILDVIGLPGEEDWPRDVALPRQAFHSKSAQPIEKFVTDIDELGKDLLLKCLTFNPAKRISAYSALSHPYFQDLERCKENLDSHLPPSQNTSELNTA

[16] = target: Serine/threonine-protein kinase 4 (Homo sapiens) (UniProt Q13043); assay: Inhibition of MST1 Lys1 labeling site harbouring AIHKETGQIVAIKQVPVESDLQEIIK in human A-375 cells at 0.05 uM by KiNativ Profiling analysis relative to control
Serine/threonine-protein kinase 4 (Homo sapiens), sequence (Q13043 whole entry, looked up): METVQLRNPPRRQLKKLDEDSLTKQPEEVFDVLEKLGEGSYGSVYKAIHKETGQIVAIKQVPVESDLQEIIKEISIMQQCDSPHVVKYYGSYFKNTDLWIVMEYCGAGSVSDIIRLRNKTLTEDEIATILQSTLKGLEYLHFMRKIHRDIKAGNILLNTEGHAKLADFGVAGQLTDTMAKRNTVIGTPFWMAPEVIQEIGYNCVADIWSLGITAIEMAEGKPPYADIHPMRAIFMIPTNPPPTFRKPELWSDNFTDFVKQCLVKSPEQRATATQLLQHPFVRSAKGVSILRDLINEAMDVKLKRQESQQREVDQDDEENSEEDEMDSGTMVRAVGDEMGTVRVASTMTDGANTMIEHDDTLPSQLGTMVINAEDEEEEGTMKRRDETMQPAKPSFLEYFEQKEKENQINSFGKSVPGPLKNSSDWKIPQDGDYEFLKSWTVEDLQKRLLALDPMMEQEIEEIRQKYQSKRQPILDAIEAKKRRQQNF

[17] = system: Proto-oncogene tyrosine-protein kinase receptor Ret (Homo sapiens), P07949 [V804M]; assay: Inhibition of RET V804M mutant (unknown origin) at 1 uM by Ambit Kinomescan binding assay relative to control; values are per cent of control

## CCN1CCN(Cc2ccc(NC(=O)c3ccc(C)c(Oc4ccnc5[nH]ccc45)c3)cc2C(F)(F)F)CC1
[1]
  residual activity: 0.95%
[2]
  inhibition: 16.5%
[3]
  inhibition: 15.5%
[4]
  inhibition: 0%
[5]
  inhibition: inactive
[6]
  inhibition: inactive

## CNc1cc(Oc2cc(C(=O)Nc3cc(N4CCN(C)CC4)cc(C(F)(F)F)c3)ccc2C)ncn1
[7]
  inhibition: 30.2%
[8]
  inhibition: 39.1%
[9]
  inhibition: -1.5%
[10]
  inhibition: -0.9%
[11]
  inhibition: 14.5%
[12]
  inhibition: -9.5%

## CCN1CCN(Cc2ccc(NC(=O)c3ccc(C)c(/C=C/c4cnc5[nH]ccc5c4OC)c3)cc2C(F)(F)F)CC1
[13]
  residual activity: 23%
[14]
  inhibition: 38.9%
[15]
  inhibition: 5.5%
[16]
  inhibition: 0.6%
[17]
  percent of control: 0.8%
